From PubChem BioAssay AID1626 (SRMLSC, 2009)

System: M. tuberculosis H37Rv growth inhibition
Test: M. tuberculosis H37Rv growth inhibitors, H37Rv strain (AID 1626)
Conditions: for IC90: measured here: IC90 against H37Rv; for CC50: measured here: Vero cell cytotoxicity

COC(=O)c1cc(-c2ccc(OC)c(OC)c2)on1
IC50: < 0.391 µM
IC90: > 100 µM

O=c1oc2ccccc2nc1/C=C(\O)c1ccc(Br)cc1
IC50: 3.56 µM
IC90: > 100 µM

O=C(NCc1nc(-c2ccc(C(F)(F)F)cc2)no1)Nc1cc(Cl)cc(Cl)c1
IC50: 5.74 µM
IC90: 10.6 µM
CC50: 12.6 µM

CC(C)(C)c1ccccc1OCCOCCN1CCCCCC1
IC50: 57.8 µM
IC90: > 100 µM

Cc1ccc(Oc2nc(CN3CCOCC3)nc3sc4c(c23)CCC(C)C4)cc1 (stereo not given)
IC50: 17.1 µM
IC90: 22.4 µM
CC50: > 40 µM

S=c1[nH]c2ccc3ccccc3c2[nH]1
IC50: 23.7 µM
IC90: > 100 µM
CC50: > 40 µM

CCCCOC(=O)c1ccc(NC(=O)C2CCCO2)cc1 (stereo not given)
IC50: 14.2 µM
IC90: > 100 µM

CC(C)OC(=O)c1ccc(NC(=O)c2cncc(Br)c2)cc1
IC90: > 100 µM

Cc1nn(-c2ccccc2)c(Cl)c1/C=N/O
IC90: > 100 µM

CCC(=O)Nc1ccc(-c2nc3ccccc3c(=O)o2)cc1
IC50: 18 µM
IC90: 84 µM

Cc1cccn2c(=O)c3cc(C(=O)NCc4ccco4)c(=N)n(CCc4ccccc4)c3nc12
IC50: 9.99 µM
IC90: 21.2 µM
CC50: 18.8 µM

CC(C)(C)c1ccccc1OCCCCCn1ccnc1
IC50: 8.29 µM
IC90: 10.9 µM
CC50: > 40 µM

Cc1[nH][nH]c(=O)c1C(c1ccc(-c2ccc(Cl)cc2)o1)c1c(C)[nH][nH]c1=O
IC50: 3.69 µM
IC90: 17 µM
CC50: > 40 µM

COc1ccc(N2CN=C3SCC(=O)N3C2)cc1
IC50: 46.5 µM
IC90: > 100 µM

Cn1c(COc2cccc3ccccc23)nnc1SCC(=O)OC1CCCCC1
IC50: 2.3 µM
IC90: 6.77 µM

CCCOC(=O)c1ccc(NC(=O)C2CCCO2)cc1 (stereo not given)
IC50: 10.3 µM
IC90: > 100 µM

CN(C)CCNC(=O)/C(=C/c1ccc(-c2ccc(Cl)cc2Cl)o1)NC(=O)c1ccccc1
IC50: 10.5 µM
IC90: 11.6 µM
CC50: 10.2 µM

COc1ccc(NC2=CC(c3ccc(OC)cc3)N(c3ccc(OC)cc3)C2=O)cc1 (stereo not given)
IC90: > 100 µM
CC50: > 40 µM

O=C(O)c1ccc(-c2nc(-c3ccc(Cl)cc3)cs2)cc1
IC50: 88.6 µM
IC90: > 100 µM
CC50: > 40 µM

N#Cc1nc(-c2cccs2)oc1NCCc1ccccc1
IC50: 1.97 µM
IC90: 5.43 µM

O=C(Nc1ccc(CN2CCOCC2)cc1)c1ccc(-c2ccc(Br)cc2)o1
IC50: 7.09 µM
IC90: 13.2 µM
CC50: 32 µM

CCOC(=O)CSc1cccc2cccnc12
CC50: 30.7 µM

O=Cc1ccc(-c2ccc(Cl)cc2Cl)[nH]1
IC50: 8.46 µM
IC90: > 100 µM

N#CC1=C(N)NC(SCC(=O)c2ccccc2)=C(C#N)C12CCCC2
IC50: 7.73 µM
IC90: > 100 µM

COCCOC(=O)c1c(C)oc2ccc(OC(=O)c3ccco3)cc12
IC50: 7.1 µM
IC90: > 100 µM

Cc1ccc2nc(Cl)c(CNCc3ccccc3)cc2c1
IC50: 5.64 µM
IC90: 14.1 µM

Nc1c(C(=O)NCCc2ccccc2)c2nc3ccccc3nc2n1CCN1CCOCC1
IC50: 18.6 µM
IC90: 25.4 µM
CC50: 31.4 µM

CCN(Cc1ccccc1)c1ccc(/C=N/N=C(N)N)cc1
IC50: 5.5 µM
IC90: 6.21 µM
CC50: 8.71 µM

CCC(CC)c1nnc(NC(=O)c2ccc3ccccc3n2)s1
IC50: 0.814 µM
IC90: 1.48 µM
CC50: 35.7 µM

CCOc1ccc2nc(/N=C/c3nc(-c4ccccc4)oc3O)sc2c1
IC50: 6.82 µM
IC90: > 100 µM

N#Cc1ccc(/C=C/C(=O)c2cccnc2)cc1
IC50: 4.84 µM
IC90: 6.15 µM
CC50: 19.3 µM

Cc1ccccc1-c1nc2cc(N)ccc2o1
IC50: 15.3 µM
IC90: > 100 µM

CCNc1nc(NCC)nc(-n2nc(C)cc2C)n1
IC50: 5.04 µM
IC90: 18.4 µM

Cc1ccc(S/C=C\C(=O)c2ccccc2)cc1
IC50: 5.51 µM
IC90: 8.53 µM

Cc1cc(Cl)cc(C)c1OCCCCn1ccnc1
IC50: 9.33 µM
IC90: 12.7 µM
CC50: > 40 µM

Nc1nc(-c2cccc(F)c2)cs1
IC50: 11.2 µM
IC90: > 100 µM

COc1ccc(N=Cc2c[nH][nH]c2=O)cc1
IC90: > 100 µM

Cc1sc2nc(CN3CCOCC3)[nH]c(=S)c2c1C
IC50: 13.3 µM
IC90: > 100 µM
CC50: > 40 µM

CCOc1ccc(NC(=O)CN2CCN(CC(=O)Nc3ccc(Cl)c(C(F)(F)F)c3)CC2)cc1
IC50: 7.93 µM
IC90: 11.3 µM
CC50: 20.8 µM

CCCOC(=O)c1ccc(NC(=O)CCOc2ccccc2)cc1
IC50: 0.622 µM
IC90: > 100 µM

Cn1c(O)c(C=Nc2ccc3c(c2)CCC3)c(=O)n(C)c1=O
IC90: > 100 µM

O=C(CSc1nc2ccccc2o1)Nc1nc(-c2ccccc2)c(-c2ccccc2)s1
IC50: 10.1 µM
IC90: > 100 µM
CC50: > 40 µM

N#CC1=C(c2ccccc2)/C(=C/c2ccccc2)OC1=O
IC50: 17.6 µM
IC90: > 100 µM
CC50: 15.4 µM

COc1ccc(SN=C2C(C)=CC(=O)C=C2C)cc1
IC50: 11 µM
IC90: 12.3 µM

CCOC(=O)N1CCN(C(=O)CSc2nnc(COc3ccccc3)o2)CC1
IC50: 24.7 µM
IC90: 40 µM

CCOC(=O)COc1ccc2c(=O)c(-c3ccccc3)coc2c1
IC50: < 0.195 µM
IC90: 0.755 µM

c1ccc2c(Nc3ccc4c(c3)OCCO4)c3c(nc2c1)CCCC3
IC50: 11.3 µM
IC90: 29.1 µM
CC50: > 40 µM

Cc1ccc2[nH]c3c(N4CCc5ccccc5C4)ncnc3c2c1
IC50: 11.8 µM
IC90: 25.8 µM
CC50: 10.8 µM

COc1cc(N=c2c([N+](=O)[O-])nn(-c3ccc4c(c3)OCCO4)n2O)cc(OC)c1
CC50: 16.2 µM

CC(=O)c1ccc(NC(=O)CSCC(=O)Nc2ccc3ccccc3c2)cc1
IC50: 51 µM
IC90: > 100 µM

Cc1nn(-c2ccc([N+](=O)[O-])cc2)c2c1C(c1ccc(OC(F)F)cc1)N1C(=N2)C(=O)Nc2ccccc21 (stereo not given)
IC50: 4.66 µM
IC90: > 100 µM
CC50: > 40 µM

Nc1nnc(Sc2ncccc2[N+](=O)[O-])s1
IC50: 9.58 µM
IC90: 12.9 µM

O=C(OCc1cccc2ccccc12)c1ccc2c(=O)[nH]c(CN3CCOCC3)nc2c1
IC50: 0.478 µM
IC90: > 100 µM
CC50: > 40 µM

COc1ccc(N=CC2=C(O)CCCC2=O)cc1
IC50: 45 µM
IC90: > 100 µM

O=C(COc1ccc2c(c1)OCO2)Nc1ccc2c(c1)oc1ccccc12
IC90: > 100 µM
CC50: > 40 µM

COC(=O)C1C(O)C(C)C(O)C(C)(O)/C=C\C=C(/C)C(=O)Nc2c(C)c(OC(C)=O)c3c(c2O)C(=O)C(C)=C2OCOC(=C23)/C(C)=C/C(C)(O)C(O)C(C)C1O (stereo not given)
IC50: 0.32 µM
IC90: 0.878 µM

CSc1nc(N(C)C)c2ccccc2n1
IC50: 42.9 µM
IC90: > 100 µM

OCCN(/C=N/c1nc(-c2ccc(Br)cc2)cs1)CCO
IC50: 31.4 µM
IC90: > 100 µM

CCOC(=O)c1c(C)n(-c2ccc(C)cc2)c2ccc(OCC(O)CNCCCO)cc12 (stereo not given)
IC50: 20.3 µM
IC90: 37.1 µM
CC50: 13 µM

CC(C)(C)NC(=O)COC(=O)c1snc(C(=O)NC2CCCCC2)c1N
IC50: 1.84 µM
IC90: 3.78 µM
CC50: > 40 µM

CNC(=O)c1c(NC(=O)c2nc3ccccc3s2)sc2c1CCC2
CC50: > 40 µM

O=C(CCl)NC1CCCc2ccccc21 (stereo not given)
IC50: 20.6 µM
IC90: > 100 µM
CC50: 32.5 µM

O=C1c2ccccc2C(Nc2ccc(-c3nc4ccccc4[nH]3)cc2)N1Cc1ccco1 (stereo not given)
IC50: 9.03 µM
IC90: 20.8 µM
CC50: > 40 µM

COc1ccc(-c2nnc(SCC(=O)OC3CCCCC3)o2)cc1OC
IC50: < 0.195 µM
IC90: 1.04 µM
CC50: > 40 µM

Cc1nn(-c2ccccc2)c2c1C(c1ccc(O)c(O)c1)N1C(=N2)C(Nc2ccccc2)=Nc2ccccc21 (stereo not given)
IC50: 1.5 µM
IC90: 2.11 µM
CC50: 8.02 µM

CCOc1ccc(NCc2nnc(SCC(=O)Nc3cc(C)on3)n2-c2ccc(OC)cc2)cc1
IC50: 35.3 µM
IC90: > 100 µM

Cc1cc(NC(=O)C2CCCCC2)n(-c2nc3ccccc3[nH]2)n1
IC50: 2.54 µM
IC90: 5.5 µM
CC50: 38 µM

O=C(CSc1nc2ccccc2o1)NCC(=O)c1ccccc1
IC50: 8.36 µM
IC90: 25.9 µM

O=C(NCCc1nc2ccccc2[nH]1)/C(=C/c1ccc2c(c1)OCO2)NC(=O)c1ccc(Cl)cc1Cl
IC50: 20.6 µM
IC90: 52.9 µM

Cc1nn(-c2ccccc2)c(C)c1C(=O)Nc1nnc(-c2ccco2)o1
IC50: 13.5 µM
IC90: > 100 µM
CC50: 38.5 µM

CN(C)c1ccc(NC(=O)Cn2cc3c(n2)CCCC3)cc1
IC50: 13 µM
IC90: 18.6 µM

CCOC(=O)c1ccc(NC(=O)CCc2nc(-c3ccc(C)cc3)no2)cc1
IC50: 1.36 µM
IC90: 12.4 µM
CC50: > 40 µM

Cc1ccc(C(=O)CNc2ccc(C)c(Cl)c2)cc1
IC90: > 100 µM

c1csc(Cc2nn3c(-c4n[nH]c5c4CCC5)nnc3s2)c1
IC50: 0.412 µM
IC90: 11 µM
CC50: > 40 µM

COC(=O)/C(=C1/Oc2cc(C)oc(=O)c2S1)C(F)(F)F
IC50: 0.698 µM
IC90: 23.8 µM
CC50: 6.33 µM

COc1ccc(CCNC(=O)c2ccc(CN3CCC(Cc4ccccc4)CC3)cc2)cc1
IC90: > 100 µM
CC50: > 40 µM

CCOC(=O)c1ccc(NC(=O)CCSCCc2ccccn2)cc1
IC50: 55.4 µM
IC90: > 100 µM

Cc1cccc(NC(=O)c2nc[nH]c2C(=O)N[C@@H](CC(C)C)C(=O)OCc2ccccc2)c1
IC50: 23 µM
IC90: > 100 µM
CC50: 39.1 µM

Cc1ccc(N=C/C(C(=O)C(F)(F)F)=C(\O)c2ccco2)cc1Cl
IC90: > 100 µM

CC1CC(C)(C)Nc2ccc(N=O)cc21 (stereo not given)
IC50: 5.75 µM
IC90: 6.38 µM
CC50: 6.76 µM

COc1ccc(NCc2n[nH]nc2-c2ccccc2)cc1Cl
IC50: 25.7 µM
IC90: > 100 µM
CC50: > 40 µM

CCCOC(=O)c1ccc(NC(=O)COC)cc1
IC50: 11.9 µM
IC90: > 100 µM

CC(C)Oc1ccc(C(=O)Nc2ccc(Cl)c(S(=O)(=O)Nc3ccc(Cl)cc3)c2)cc1
IC50: 11.6 µM
IC90: 22.4 µM
CC50: 28.9 µM

CC(Oc1ccc(Cl)cc1Cl)c1nc(-c2ccc(NC(=O)c3ccncc3)cc2)no1 (stereo not given)
IC50: 33.5 µM
IC90: > 100 µM
CC50: > 40 µM

O=[N+]([O-])c1cccn2cc(-c3ccc(Br)cc3)nc12
IC50: 18.8 µM
IC90: > 100 µM
CC50: 27.1 µM
